Assay: Transfer of volatiles via headspace from MCT flavor composition to PG plated onto MCC, cyclohexane extraction, GC/MS
Type: physicochemical
Settings: for (conc in PG/conc in initial oil)*100: affinity for propylene glycol versus MCT oil or air; for (conc in PG/conc in initial oil)*100 / Avg conc in the PG: 6 days room temperature; for Avg conc in the PG / Avg conc in powder: powder 20% PG on 80% MCC; for Avg conc in powder: 6 days room temperature in closed container with MCT flavor composition, average of 2 extractions
Experimental: A flavor composition formulated based on a medium chain triglyceride oil (MCT, solvent A) was filled into a open beaker, and was then placed inside a closed glass container containing a powder consisting of 20% propylene glycol (PG, solvent B) plated onto 80% of microcrystalline cellulose (MCC; purchased from Sigma Aldrich). Then the system was stored in the lab at room temperature. After 6 days, a small sample of powder was removed, an extraction experiment was performed and the extract was analyzed by GC/MS. Extraction solvent: cyclohexane Internal standard: Methyloctanoate (a 6.67 mg/ml solution was prepared by dissolution in cyclohexane) 2 extractions were performed to check the reproducibility.

| Molecule | (conc in PG/conc in initial oil)*100 | Avg conc in the PG [ppm] | Avg conc in powder [ppm] |
| --- | --- | --- | --- |
| CCc1ncc(C)nc1C [2-ethyl-3,5-dimethylpirazine] | 12.7 | 25.4 | 6 |
| CCc1nccnc1C [2-ethyl-3-methylpyrazine] | 39.9 | 799.0 | 200 |
| CCC(C)C=O (stereo not drawn) [2-methyl butanal] | 6.7 | 1615.4 | 404 |
| CSCCC=O [3-(methylthio)propanal] | 2.8 | 113.5 | 28 |
| CC(=O)C(C)O (stereo not drawn) [acetylmethylcarbinol] | 3.9 | 156.9 | 39 |
| CC(C)CC=O [isovalerianic aldehyde] | 9.1 | 1091.5 | 273 |
| Decenal | 0.3 | 37.8 | 9 |
| Dienal C10 | 1.9 | 467.4 | 117 |
| Dienal C11 | 0.5 | 40.4 | 10 |

— patent US11051538B2, “Plated flavor powders” (FIRMENICH SA, priority 2013, dated 2021)
